Values of other authors, collected in patent US20240115492A1, “AN ORODISPERSIBLE PHARMACEUTICAL SOLID DOSAGE FORM OF RASAGILINE” (INTAS PHARMACEUTICALS LTD., priority 2021, published 2024).

For `C#CCN(C)[C@H](C)Cc1ccccc1` [selegiline], the “Selegiline plasma exposure, ODT versus conventional tablets” value (10 mg orally disintegrated tablets vs conventional 10 mg tablets) is listed as “twelve-time higher” and the “selegiline absorbed through the mucous membrane of the mouth” value (ODT form (10 mg), within 1 minute) is listed as “about 30%”.
